According to US20170027902A1, “Use of a Composition Comprising a Flavonol, A Flavonoid, and a Fatty Acid in the Treatment of Oxidative Injuries Due to Mitochondrial Dysfunction” (priority 2014, published 2017):

Tests used:
[1] = tested on: primary cultures of mouse cortical neurons; assay: Toxicity of high concentrations to cortical neuron cultures; format: cell-based; conditions: concentrations of 10 μg/ml or above
[2] = tested on: primary cultures of mouse cortical neurons; assay: Oxygen glucose deprivation (OGD), cell viability by MTT assay; format: cell-based; conditions: for reduction in OGD-induced neuronal cell death / loss of cell viability (increase in neuronal survival): pretreatment 24 hrs before OGD (3 hrs), MTT 24 hrs after OGD; for reduction of loss in cell viability after OGD: treatment 0.5 hrs before OGD, 1 μg/ml, viability 24 hrs later
Protocol: Embryonic day 16 timed pregnant CD1 out-bred mice were obtained from Charles River Laboratories (Charles River; QC, Canada). Primary cortical neuron cultures were prepared from cerebral cortices of wild type (WT) CD1 mouse embryos as described previously, with the following modifications. Pregnant CD1 females were heavily anaesthetized with isoflurane vapor (Benson Medical Industries, Inc., Markham, ON) before being euthanized by decapitation. The embryonic day 16 (E16) fetuses were immediately removed from the sacrificed pregnant females by cesarean section and placed in ice-cold Hank's Balanced Salt Solution (HBSS) (GIBCO; Invitrogen, Amarillo, Calif.). The meninges were removed from the brains and cortices were isolated under a dissecting microscope. The cortices from each embryo were placed in individual wells of a 24-well plate (Corning; Lowell, Mass.), containing 1 ml of ice-cold PBS (GIBCO; […] Under sterile conditions, the tissue was briefly minced, transferred to 15 ml sterile conical tubes (Corning; Lowell, Mass.) and centrifuged at 350×g for 3 min at room temperature. The dissecting solution was discarded and the cortical neurons were then dissociated trituration with fire-polished glass pipettes followed by incubating in 1 ml of 0.1% trypsin solution (0.1% w/v trypsin (Invitrogen, Amarillo, Calif.) in PBS with 1 mM Mg^2+ and 13 mM glucose) at 37° C. for 15 min. The trypsinization was inhibited by the addition of 0.5 ml of trypsin inhibitor solution that also contained DNase I (0.06% w/v trypsin inhibitor (Invitrogen; Amarillo, Calif.) and 0.01% DNase I (Invitrogen; […] The tubes were mixed briefly and the cells were centrifuged at 350×g for 3 min at room temperature. The trypsin and inhibitor solutions were discarded and each cell pellet was suspended in 1 ml of cortical neuron plating medium (Neurobasal medium (Invitrogen, Amarillo, Calif.) with 10% fetal bovine serum (GIBCO; Invitrogen; Amarillo, Calif.), 2% B27 supplement, 1 mM L-glutamine, and 1% Gentamycin (Invitrogen; […] Cortical neurons were plated in 96-well plates (Corning; Lowell, Mass.) that were pre-coated with poly-D-lysine (PDL; Sigma-Aldrich; Oakville, ON) according to the procedure described by the manufacturer. Briefly, plates were coated immediately before use with 100 μg/ml PDL for 5-10 min (50 μl/well), washed three times with tissue-culture grade water and left to dry for 2 h before cells were introduced. Cortical neurons were plated at a concentration of 1×10^6 cells/ml (100 µl/well) and medium was completely changed the day after plating to serum-free cortical neuron medium (Neurobasal medium with 2% B27 supplement, 5 mM HEPES, 0.5 mM L-glutamine, and 20 μg/ml Gentamycin), which was replaced every 3 days in culture. Cultures were maintained in a humidified, 37° C. incubator with 5% CO2. Experiments were performed on the eighth day in vitro (DIV10). […] Glucose-free medium (glucose-free Dulbecco's Modified Eagle Medium (GBSS, Invitrogen; Amarillo, Calif.) containing either epicatechin or quercetin or epicatechin plus quercetin at concentration of 1 μg/ml or 3 μg/ml or the corresponding DMSO control (0.02% DMSO) was placed in a 96-well plate and equilibrated to 0% oxygen in a modular chamber incubator (Billups-Rothenberg; Del Mar, Calif.). The chamber was flushed for 4 min at 20 l/min with an anoxic gas mixture (5% CO2 and Balanced […]; Dartmouth, NS) using a step-down pressure system and placed in a humidified, 37° C. incubator for 12 h. Cortical neuron medium was replaced with OGD-medium (anoxic and glucose-free) and the cultures were placed in the modular chamber incubator. The chamber was flushed again with anoxic gas and placed inside a humidified, 37° C. incubator for 3 hrs. […] Cell viability was assessed 24 hours after the completion of OGD. The culture media was exchanged for MEM media without phenol red containing 0.5 mg/ml MTT (3-[4,5-dimethylthiazol-2-yl]-2,5-diphenyltetrazolium bromide). […]

[3] = 1 μg/ml total flavonoid (~3 μM; E+Q 0.5 μg/ml each)
[4] = 3 μg/ml total flavonoid (~10 μM; E+Q 1.5 μg/ml each)

Row | Compound | toxicity to primary cultures of mouse cortical neurons [1] | reduction in OGD-induced neuronal cell death / loss of cell viability (increase in neuronal survival) [2, 3] | reduction in OGD-induced neuronal cell death / loss of cell viability (increase in neuronal survival) ([2]; 1 μg/ml total flavonoid (~3 μM; E+Q 0.5 μg/ml each), listed as Epicatechin) | reduction in OGD-induced neuronal cell death / loss of cell viability (increase in neuronal survival) [2, 4] | reduction of loss in cell viability after OGD [2] | reduction in OGD-induced neuronal cell death / loss of cell viability (increase in neuronal survival) ([2]; 3 μg/ml total flavonoid (~10 μM; E+Q 1.5 μg/ml each), listed as quercetin)
1 | Oc1cc(O)c2c(c1)O[C@H](c1ccc(O)c(O)c1)[C@H](O)C2 [E, (2R,3R)-2-(3,4-dihydroxyphenyl)-3,4-dihydro-2H-chromene-3,5,7-triol] | increasingly toxic | modestly reduced the loss in cell viability | 30% | protected | did not reduce the loss in cell viability | –
2 | O=c1c(O)c(-c2ccc(O)c(O)c2)oc2cc(O)cc(O)c12 [Q] | increasingly toxic | failed to protect | – | modestly reduced the loss in cell viability | did not reduce the loss in cell viability | 30%
